Test results from patent US4582821A, “Inhibition of cyclic nucleotide independent protein kinases” (E. I. Du Pont de Nemours and Company, priority 1983, dated 1986).

How the values were obtained:
A-431 cell EGF receptor = target: T1, A-431 cell EGF receptor (Homo sapiens, UniProt P00533); assay: Protein phosphorylation of A-431 cell membrane EGF receptors (intact membranes, EGF present); assay type: biochemical; conditions: 600 nmoles/mg protein, intact A-431 membranes
T1 construct: intact A-431 cell membranes were employed, rather than solubilized extracts; endogenous in cells; host or cells: A-431 human epidermoid carcinoma cells (plasma membranes)
Description: (§1) Protein phosphorylation assays were conducted substantially as described by Carpenter et al., J. Biol. Chem. 254:4884 (1979). Each assay mixture contained, in a final volume of 70 μL: 20 mM Hepes, pH 7.4, 0.01% bovine serum albumin (BSA), 15-150 μg protein in Triton extract, 100 ng EGF, 1 mM MnCl2 and 10-20 μM [γ-^32 P] ATP (2-4 μCi). Peptide halomethyl ketones were added as solutions in ethanol; an equivalent volume of ethanol was added to controls. Assay mixtures were incubated at about 23° for ten minutes, with or without added EGF. Mixtures were then held at 0° for ten minutes before initiation of phosphorylation by addition of 15 μM γ-^32 P) ATP (2 μCi). Reactions were terminated after 3 minutes at 0° by applying an aliquot of the assay mixture to a Whatman 3MM filter paper (2×2 cm), which was then suspended in ice-cold 10% trichloroacetic acid containing 10 mM pyrophosphate. This suspension was gently shaken for a period of 1 hour, during which the trichloroacetic acid/pyrophosphate mixture was changed three times. Finally, the filter papers were dried and radioactivity measured by scintillation counting.
Assays were conducted substantially as described above, except intact A-431 cell membranes were employed, rather than solubilized extracts, and assay mixtures contained 1 mM ouabain. In these Examples, reactions were permitted to proceed for 6 minutes. This technique is substantially similar to that disclosed by Navarro et al., Biochemistry, 21:6138 (1982).

p130^fps = target: T2, p130^fps (UniProt P00530+P03323); assay: Immune complex phosphorylation by p130fps immunoprecipitates of FSV-transformed cells; assay type: biochemical, Fujinami sarcoma virus (FSV); conditions: for Activity (cpm), FSV: anti-gag immunoprecipitates, no inhibitor 27036; for Activity (cpm), Control: extracts immunoprecipitated with normal serum, no inhibitor 2624
T2 construct: anti-gag serum and Staphylococcus protein A suspension (for FSV-transformed cells); viral gag-derived N-terminal portion (natural gag-fps fusion); expressed in transfected cells; immune complex with anti-gag serum and Staphylococcus protein A
Description: In this experiment, Boc-LeuCH2 Br was tested as an inhibitor of pp60^src and p130^fps, the tyrosine-specific protein kinases encoded by the transforming genes of RSV and Fujinami sarcoma virus, respectively.
These viral gene products were partially purified by preparation of immune complexes substantially according to the technique described by Collett et al., Proc. Nat. Acad. Sci. USA 75:2021 (1978). In this procedure, immunoprecipitates are prepared by incubation of extracts of virus-transformed cells with tumor-bearing rabbit serum (TBR) and Staphylococcus protein A suspension (for RSV-transformed cells) or anti-gag serum and Staphylococcus protein A suspension (for FSV-transformed cells).
Assay mixtures contained, in a final volume of 70 μL, 100 μg of immune complex protein, 20 mM Hepes, pH 7.4, and 1 mM MnCl2. Phosphorylation was initiated by addition of 1 μM (4 μCi) [γ-^32 P] ATP. After 10 minutes at about 23°, reactions were terminated by pipetting 20 μL aliquots of assay mixture onto 2×2 cm squares of Whatman 3 MM filter paper, which were immediately suspended in 10% TCA/10 mM sodium pyrophosphate. […] Controls for the immunoprecipitation procedure were prepared by immunoprecipitating transformed cell extracts with normal serum. Values in parentheses represent specific phosphorylation induced by virus-transformed cells.
In a related experiment, the capacity of Boc-LeuCH2 Br to inhibit phosphorylation of casein by p130^fps was determined. These tests were conducted substantially as described above, except 1 mg/mL casein was added to assay mixtures as a substrate, and reactions were terminated by addition of 2.5 mM unlabeled ATP and immediate cooling to 0°. Phosphorylated casein was separated from immunoprecipitate suspensions by centrifugation at 3,000 xg for 3 minutes. The resulting pellets were resuspended in 70 μL of 10 mM Hepes, pH 7.5, and 20 μL aliquots were pipetted onto filter paper squares as previously described.
This experiment was conducted substantially according to the procedures described in Example 17, above. In Table 5, "FSV" refers to immunoprecipitates of FSV-transformed cell extracts prepared by addition of anti-gag serum; controls were extracts immunoprecipitated with normal serum.

[1] = system: A-431 plasma membrane extracts (EGF-mediated protein phosphorylation); assay: Protein phosphorylation in solubilized A-431 plasma membrane extracts, with or without EGF; assay type: biochemical, human; conditions: 477 nmol/mg protein
Description: The capacity of certain peptide halomethyl ketones to inhibit protein phosphorylation is illustrated by Examples 1-8, below, in which solubilized plasma membranes prepared from A-431 human epidermoid carcinoma cells were incubated with [γ-^32 P] ATP in the presence of EGF.
A-431 human epidermoid carcinoma cells were grown in Dulbecco's modified Eagle's medium containing 5% fetal calf serum. Plasma membranes were isolated by a method substantially similar to that described by Thom et al., Biochem J. 168:187 (1977), and kept at -70°. Solubilization of plasma membranes was performed substantially as described by Cohen et al., J. Biol. Chem. 255:4834 (1980). In this procedure, 7.5 mg/mL protein was solubilized with 5% Triton X-100 (octylphenol), 10% glycerol, and 20 mM Hepes buffer (N-2-hydroxyethylpiperazine-N^1 -2-ethanesulfonic acid), pH 7.4. This mixture was incubated for 20 minutes at about 23°, followed by centrifugation at 100,000 xg for 60 minutes.
as §1

ASV-transformed cells = conditions: Weber, Cell 5:253 (1975); cited from earlier work
pp60^src = conditions: Richert et al., Cell 18:369 (1979); cited from earlier work

T1 sequence (P00533 25-1210): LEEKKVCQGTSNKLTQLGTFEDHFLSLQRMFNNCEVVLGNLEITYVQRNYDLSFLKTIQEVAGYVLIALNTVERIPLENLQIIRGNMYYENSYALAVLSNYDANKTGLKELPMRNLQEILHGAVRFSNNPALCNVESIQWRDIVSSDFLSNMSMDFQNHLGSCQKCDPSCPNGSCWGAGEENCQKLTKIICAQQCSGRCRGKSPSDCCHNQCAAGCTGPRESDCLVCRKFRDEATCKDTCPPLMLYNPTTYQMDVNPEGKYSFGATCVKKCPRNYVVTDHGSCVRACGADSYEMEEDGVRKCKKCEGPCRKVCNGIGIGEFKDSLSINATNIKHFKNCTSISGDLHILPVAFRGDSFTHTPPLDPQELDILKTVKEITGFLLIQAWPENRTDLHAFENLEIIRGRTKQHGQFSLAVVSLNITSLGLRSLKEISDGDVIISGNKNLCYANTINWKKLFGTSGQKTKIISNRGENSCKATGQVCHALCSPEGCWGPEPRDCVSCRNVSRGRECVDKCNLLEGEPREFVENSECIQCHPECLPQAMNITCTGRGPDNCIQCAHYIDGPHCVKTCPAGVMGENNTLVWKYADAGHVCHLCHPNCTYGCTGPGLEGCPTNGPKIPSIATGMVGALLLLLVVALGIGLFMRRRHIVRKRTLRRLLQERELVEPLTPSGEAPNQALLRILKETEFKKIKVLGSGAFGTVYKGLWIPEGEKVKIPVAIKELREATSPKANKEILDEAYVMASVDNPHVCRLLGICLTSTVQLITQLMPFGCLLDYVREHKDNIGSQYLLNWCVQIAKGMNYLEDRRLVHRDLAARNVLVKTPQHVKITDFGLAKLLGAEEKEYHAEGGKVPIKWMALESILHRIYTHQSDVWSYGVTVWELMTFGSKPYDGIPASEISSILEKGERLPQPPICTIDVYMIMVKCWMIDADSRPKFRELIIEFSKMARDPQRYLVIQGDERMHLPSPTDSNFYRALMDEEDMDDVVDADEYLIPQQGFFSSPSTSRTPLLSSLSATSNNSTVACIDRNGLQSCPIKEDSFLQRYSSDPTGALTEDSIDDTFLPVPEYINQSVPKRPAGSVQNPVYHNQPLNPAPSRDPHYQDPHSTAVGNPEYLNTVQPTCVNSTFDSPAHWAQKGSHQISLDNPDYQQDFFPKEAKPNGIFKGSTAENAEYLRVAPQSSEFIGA

In the case of `CC(C)(C)OC(=O)N[C@@H](Cc1ccc(O)cc1)C(=O)CBr` [Boc-TyrCH2 Br], the “% inhibition” value (A-431 cell EGF receptor) is reported as 49%, the “% inhibition” value (p130^fps; 250 nmoles/mg protein) is reported as 84% and the “Activity (cpm), FSV” value (p130^fps; 250 nmoles/mg protein) is reported as 4204 cpm. For the same compound, the “Activity (cpm), Control” value (p130^fps; 250 nmoles/mg protein) was 2132 cpm, the “% inhibition” value (p130^fps; 500 nmoles/mg protein) was 87% and the “Activity (cpm), FSV” value (p130^fps; 500 nmoles/mg protein) was 3404 cpm. The “Activity (cpm), Control” value (p130^fps; 500 nmoles/mg protein) was 2140 cpm, the “% inhibition, EGF Added” value ([1]; EGF added) was 78% and the “EGF Added (pmol 32P incorporated/min/mg protein)” value ([1]; EGF added, control 96.2) was 20.6 pmol^32 P incorporated/min/mg. For the same compound, the “% inhibition, No EGF Added” value ([1]; no EGF) was 83% and the “No EGF Added (pmol 32P incorporated/min/mg protein)” value ([1]; no EGF, control 21.6) was 3.6 pmol^32 P incorporated/min/mg.

For `Cc1ccc(S(=O)(=O)N[C@@H](CCCCN)C(=O)CCl)cc1` [TLCK, N-α-tosyl-L-lysyl chloromethyl ketone], the “phenotype of ASV-transformed cells upon treatment (in words)” value (ASV-transformed cells) is given as “phenotypic reversion of ASV-transformed cells to normal” and the “in vivo protein phosphorylation activity associated with pp60src (in words)” value (pp60^src) is given as “observed to inhibit”.
